Results taken from PMC5903342 (Oxidative Medicine and Cellular Longevity, 2018).
Entries after “also recorded” stand apart in the source; their conditions may differ.

Legend:
HepG2 cells = test: Cytoprotective assay of HepG2 cells (WST-1, coexposure with alkylating agent at LC50); assay type: cell-based, Human; conditions: 24 h coexposure with 20 μM MMS, AVA at 1.0 and 10.0 μM
Procedure: After 24 h of coexposure, the culture medium was replaced by a 90 μL fresh culture medium and 10 μL WST-1 and incubated at 37°C and 5% CO2 for 2 h. The absorbance was then measured following the protocol as described before. The survival rates were determined in comparison to the negative control.

[1] = test system: Salmonella enterica serovar typhimurium TA102; test: Antimutagenicity assay (Salmonella/microsome), strain TA102; assay type: cell-based; conditions: TA102, cotreatment
Text: (§1) Salmonella enterica serovar typhimurium (S. typhimurium) strains TA100, TA1535, TA104, and TA102 from the authors' laboratory stock were used as described by Maron and Ames in the antimutagenicity assay.
(§2) We carried out the coexposure protocol of the antimutagenicity assay to investigate the potential of the compound to protect against alkylation-mediated genetic mutation in S. typhimurium TA100, TA102, TA104, and TA1535 strains according to Ajith and Soja. The test proceeded both in the absence and presence of a metabolic activation system (4% S9 mix, Aroclor preinduced, from MOLTOX Inc., USA). DMSO 1% served as the negative control. […] The mixtures were incubated in a shaker at 37°C (preincubation) under light protection. After a total of 60 min of cotreatment, the mixtures were added to and mixed with 2 mL top agar containing 0.05 mmol/L L-histidine and D-biotin for the S. typhimurium strains. Each of these was then spread on a minimal glucose agar (1.5% agar, Vogel-Bonner medium E, containing 2% glucose) plate. After the top agar solidified, the plates were incubated at 37°C for 60–72 h. Each tester strain was assayed in triplicate and repeated at least twice, and the number of revertant colonies was counted for each tester strain and treatment group. The counts of revertant colonies were obtained to build a dose-response curve and calculate the percentage of reduction.

[2] = test system: Salmonella enterica serovar typhimurium TA1535; test: Antimutagenicity assay (Salmonella/microsome), strain TA1535; assay type: cell-based; conditions: TA1535, cotreatment
Text: as §1, §2

[3] = DPPH free radical scavenging assay; assay type: biochemical; conditions: absorbance at 517 nm
Procedure: The free radical scavenging activity was measured by following microplate procedures as previously described. One hundred microliters of the sample dilutions with five concentration levels (varying from 0 to 2000 μM in DMSO) was added to two identical groups of wells in a 96-well microplate. The same volume of 0.1 mM DPPH-methanol solution was added to each well of one group (samples), and methanol ([…]) was added to the other group (blanks). The control was prepared by mixing the DPPH-methanol solution with the sample solvent or butylated hydroxytoluene (BHT). The solutions were mixed thoroughly, covered, and allowed to react in the dark at room temperature for 40 min. The absorbance was measured at 517 nm using a microplate reader (Quant, BioTek Instruments Inc.), and the scavenging activity was calculated from the absorbance values according to the following equation: […]. The antioxidant properties of the samples were expressed as half the maximal effective concentrations (EC50) obtained by interpolation from the linear regression analysis. BHT was used as the positive control.

[4] = test system: Salmonella enterica serovar typhimurium TA100; test: Antimutagenicity assay (Salmonella/microsome), strain TA100 (co-, pre- and posttreatment); assay type: cell-based
[5] = +S9, CPA (150 μM), atorvastatin 20 μM
[6] = +S9, CPA (150 μM), atorvastatin 100 μM
[7] = +S9, CPA (150 μM), atorvastatin 200 μM
[8] = +S9, CPA (150 μM), atorvastatin 1000 μM
[9] = +S9, CPA (150 μM), atorvastatin 1000 μM, listed as Atorvastatin
[10] = −S9, MMS (100 μM), atorvastatin 20 μM
[11] = −S9, MMS (100 μM), atorvastatin 100 μM
[12] = −S9, MMS (100 μM), atorvastatin 200 μM
[13] = −S9, MMS (100 μM), atorvastatin 1000 μM
[14] = TA100, cotreatment, +S9, CPA (150 μM), atorvastatin 20 μM
[15] = TA100, cotreatment, +S9, CPA (150 μM), atorvastatin 100 μM
[16] = TA100, cotreatment, +S9, CPA (150 μM), atorvastatin 200 μM
[17] = TA100, cotreatment, +S9, CPA (150 μM), atorvastatin 1000 μM
[18] = TA100, cotreatment, −S9, MMS (100 μM), atorvastatin 20 μM
[19] = TA100, cotreatment, −S9, MMS (100 μM), atorvastatin 100 μM
[20] = TA100, cotreatment, −S9, MMS (100 μM), atorvastatin 200 μM
[21] = TA100, cotreatment, −S9, MMS (100 μM), atorvastatin 1000 μM
[22] = TA100, posttreatment, +S9, CPA (150 μM), atorvastatin 20 μM
[23] = TA100, posttreatment, +S9, CPA (150 μM), atorvastatin 200 μM
[24] = TA100, posttreatment, +S9, CPA (150 μM), atorvastatin 1000 μM
[25] = TA100, posttreatment, −S9, MMS (100 μM), atorvastatin 20 μM
[26] = TA100, posttreatment, −S9, MMS (100 μM), atorvastatin 100 μM
[27] = TA100, posttreatment, −S9, MMS (100 μM), atorvastatin 200 μM
[28] = TA100, posttreatment, −S9, MMS (100 μM), atorvastatin 1000 μM
[29] = TA100, pretreatment, +S9, CPA (150 μM), atorvastatin 20 μM
[30] = TA100, pretreatment, +S9, CPA (150 μM), atorvastatin 100 μM
[31] = TA100, pretreatment, +S9, CPA (150 μM), atorvastatin 200 μM
[32] = TA100, pretreatment, +S9, CPA (150 μM), atorvastatin 1000 μM
[33] = TA100, pretreatment, −S9, MMS (100 μM), atorvastatin 20 μM
[34] = TA100, pretreatment, −S9, MMS (100 μM), atorvastatin 100 μM
[35] = TA100, pretreatment, −S9, MMS (100 μM), atorvastatin 200 μM
[36] = TA100, pretreatment, −S9, MMS (100 μM), atorvastatin 1000 μM

CC(C)c1c(C(=O)Nc2ccccc2)c(-c2ccccc2)c(-c2ccc(F)cc2)n1CC[C@@H](O)C[C@@H](O)CC(=O)O [AVA, atorvastatin]
Cytoprotective effect (survival of HepG2 coexposed to MMS) (HepG2 cells): significant protection; also recorded: significant cytoprotective effect | % reduction [1, 5]: 7.27% | His+ (revertant colonies) [1, 5]: 566 ± 54 | % reduction [1, 6]: 9.09% | His+ (revertant colonies) [1, 6]: 560 ± 38 | % reduction [1, 7]: 14.55% | His+ (revertant colonies) [1, 7]: 543 ± 42 | % reduction [1, 8]: 30% | His+ (revertant colonies) [1, 8]: 496 ± 11 | % reduction [1, 9]: 30.00^∗ % | % reduction [1, 10]: 16.03% | His+ (revertant colonies) [1, 10]: 525 ± 32 | % reduction [1, 11]: 19.08% | His+ (revertant colonies) [1, 11]: 515 ± 64 | % reduction [1, 12]: 29% | His+ (revertant colonies) [1, 12]: 483 ± 91 | % reduction ([1]; −S9, MMS (100 μM), atorvastatin 200 μM, listed as Atorvastatin): 29.01^∗ % | % reduction [1, 13]: 41.2% | His+ (revertant colonies) [1, 13]: 443 ± 28 | % reduction ([1]; −S9, MMS (100 μM), atorvastatin 1000 μM, listed as Atorvastatin): 41.22^∗ % | % reduction [2, 5]: 9.44% | His+ (revertant colonies) [2, 5]: 53 ± 3 | % reduction [2, 6]: 11.11% | His+ (revertant colonies) [2, 6]: 52 ± 7 | % reduction [2, 7]: 30.6% | His+ (revertant colonies) [2, 7]: 45 ± 4 | % reduction ([2]; +S9, CPA (150 μM), atorvastatin 200 μM, listed as Atorvastatin): 30.56^∗ % | % reduction [2, 8]: 42.2% | His+ (revertant colonies) [2, 8]: 41 ± 8 | % reduction [2, 9]: 42.22^∗ % | % reduction [2, 10]: 45.65^∗ % | His+ (revertant colonies) [2, 10]: 50 ± 4 | % reduction [2, 11]: 67.39^∗ % | His+ (revertant colonies) [2, 11]: 40 ± 5 | % reduction [2, 12]: 86.95^∗ % | His+ (revertant colonies) [2, 12]: 31 ± 2 | % reduction [2, 13]: 91.30^∗ % | His+ (revertant colonies) [2, 13]: 29 ± 3 | EC50 [3]: 274 ± 3 µM | % reduction [4, 14]: 2.65% | His+ (revertant colonies) [4, 14]: 235 ± 22 | % reduction [4, 15]: 6.19% | His+ (revertant colonies) [4, 15]: 230 ± 31 | % reduction [4, 16]: 11.50% | His+ (revertant colonies) [4, 16]: 224 ± 15 | % reduction [4, 17]: 17.70% | His+ (revertant colonies) [4, 17]: 216 ± 25 | % reduction [4, 18]: 7.14% | His+ (revertant colonies) [4, 18]: 204 ± 18 | % reduction [4, 19]: 12.5% | His+ (revertant colonies) [4, 19]: 198 ± 22 | % reduction [4, 20]: 19.64% | His+ (revertant colonies) [4, 20]: 190 ± 13 | % reduction [4, 21]: 23.21% | His+ (revertant colonies) [4, 21]: 186 ± 14 | Reduction of DNA injuries caused by MMS or CPA ([4]; TA100, posttreatment): not able to reduce | % reduction [4, 22]: 12.04% | His+ (revertant colonies) [4, 22]: 257 ± 5 | % reduction ([4]; TA100, posttreatment, +S9, CPA (150 μM), atorvastatin 100 μM): 17.44% | % reduction [4, 23]: 18.49% | His+ (revertant colonies) [4, 23]: 216 ± 8 | % reduction [4, 24]: 21.48% | His+ (revertant colonies) [4, 24]: 207 ± 23 | % reduction [4, 25]: 5.69% | His+ (revertant colonies) [4, 25]: 257 ± 26 | % reduction [4, 26]: 11.86% | His+ (revertant colonies) [4, 26]: 248 ± 23 | % reduction [4, 27]: 20.10% | His+ (revertant colonies) [4, 27]: 237 ± 22 | % reduction [4, 28]: 23.00% | His+ (revertant colonies) [4, 28]: 233 ± 26 | % reduction [4, 29]: 79.4^∗ % | His+ (revertant colonies) [4, 29]: 130 ± 30 | % reduction [4, 30]: 81.6^∗ % | His+ (revertant colonies) [4, 30]: 127 ± 19 | % reduction [4, 31]: 92.59^∗ % | His+ (revertant colonies) [4, 31]: 111 ± 9 | % reduction [4, 32]: 97.92^∗ % | His+ (revertant colonies) [4, 32]: 103 ± 2 | Antimutagenic activity ([4]; TA100, pretreatment, all concentrations, presence and absence of metabolic conditions): exerted antimutagenic activity | % reduction [4, 33]: 45.97^∗ % | His+ (revertant colonies) [4, 33]: 171 ± 14 | % reduction [4, 34]: 88.57^∗ % | His+ (revertant colonies) [4, 34]: 117 ± 2 | % reduction [4, 35]: 91.43^∗ % | His+ (revertant colonies) [4, 35]: 113 ± 6 | % reduction [4, 36]: 98.7^∗ % | His+ (revertant colonies) [4, 36]: 103 ± 4
